# Experimental data: patent US11793849B2, “Method of Chinese herbal medicine extract used for treating multiple diseases caused by drug resistant bacteria infection” (priority 2016, dated 2023)
# Read-outs that look alike come from different tables or passages of the source.
# System: MDRAB
# Assay: MIC determination, microdilution broth method
# Format: cell-based, Acinetobacter baumannii
# Conditions: Acinetobacter baumannii, read-out: MIC
# Procedure: Determination methods of a Minimal Inhibitory Concentration (MIC) and a Minimum Bactericidal Concentration (MBC) of a test product: the MIC and the MBC of the Pithecellobium clypearia Benth water or ethanol extract to the MDRAB are determined by a microdilution broth method. And it is operated by referring to the microdilution broth method recommended by National Committee for Clinical Laboratory Standards (NCCLS).
smiles,measurement,setting,value
"C[C@@H](O)[C@H]1C(=O)N2C(C(=O)O)=C(SCCN=CN)C[C@H]12 [IMP, imipenem]",MIC,"strain A1, EA=60% ethanol extract",1 µg/mL
same,MIC,"strain A1, EA=95% ethanol extract",1 µg/mL
same,MIC,"strain A1, single use, EA=10% ethanol extract",1 µg/mL
same,MIC,"strain A1, single use, EA=water extract",1 µg/mL
same,MIC,"strain A2, EA=60% ethanol extract",32 µg/mL
same,MIC,"strain A2, EA=95% ethanol extract",32 µg/mL
same,MIC,"strain A2, single use, EA=10% ethanol extract",32 µg/mL
same,MIC,"strain A2, single use, EA=water extract",32 µg/mL
same,MIC,"strain A3, EA=60% ethanol extract",32 µg/mL
same,MIC,"strain A3, EA=95% ethanol extract",32 µg/mL
same,MIC,"strain A3, single use, EA=10% ethanol extract",32 µg/mL
same,MIC,"strain A3, single use, EA=water extract",32 µg/mL
same,MIC,"strain A4, EA=60% ethanol extract",8 µg/mL
same,MIC,"strain A4, EA=95% ethanol extract",8 µg/mL
same,MIC,"strain A4, single use, EA=10% ethanol extract",8 µg/mL
same,MIC,"strain A4, single use, EA=water extract",8 µg/mL
same,MIC,"strain A5, EA=60% ethanol extract",32 µg/mL
same,MIC,"strain A5, EA=95% ethanol extract",32 µg/mL
same,MIC,"strain A5, single use, EA=10% ethanol extract",32 µg/mL
same,MIC,"strain A5, single use, EA=water extract",32 µg/mL
same,MIC,"strain A6, EA=60% ethanol extract",32 µg/mL
same,MIC,"strain A6, EA=95% ethanol extract",32 µg/mL
same,MIC,"strain A6, single use, EA=10% ethanol extract",32 µg/mL
same,MIC,"strain A6, single use, EA=water extract",32 µg/mL
same,MIC,"strain A7, EA=60% ethanol extract",32 µg/mL
same,MIC,"strain A7, EA=95% ethanol extract",32 µg/mL
same,MIC,"strain A7, single use, EA=10% ethanol extract",32 µg/mL
same,MIC,"strain A7, single use, EA=water extract",32 µg/mL
same,MIC,"strain A8, EA=60% ethanol extract",32 µg/mL
same,MIC,"strain A8, EA=95% ethanol extract",32 µg/mL
same,MIC,"strain A8, single use, EA=10% ethanol extract",32 µg/mL
same,MIC,"strain A8, single use, EA=water extract",32 µg/mL
same,MIC,"strain A9, EA=60% ethanol extract",32 µg/mL
same,MIC,"strain A9, EA=95% ethanol extract",32 µg/mL
same,MIC,"strain A9, single use, EA=10% ethanol extract",32 µg/mL
same,MIC,"strain A9, single use, EA=water extract",32 µg/mL
same,MIC,"strain A10, EA=60% ethanol extract",16 µg/mL
same,MIC,"strain A10, EA=95% ethanol extract",16 µg/mL
same,MIC,"strain A10, single use, EA=10% ethanol extract",16 µg/mL
same,MIC,"strain A10, single use, EA=water extract",16 µg/mL
same,MIC,"strain A11, EA=60% ethanol extract",32 µg/mL
same,MIC,"strain A11, EA=95% ethanol extract",32 µg/mL
same,MIC,"strain A11, single use, EA=10% ethanol extract",32 µg/mL
same,MIC,"strain A11, single use, EA=water extract",32 µg/mL
same,MIC,"strain A12, EA=60% ethanol extract",32 µg/mL
same,MIC,"strain A12, EA=95% ethanol extract",32 µg/mL
same,MIC,"strain A12, single use, EA=10% ethanol extract",32 µg/mL
same,MIC,"strain A12, single use, EA=water extract",32 µg/mL
same,MIC,"strain A13, EA=60% ethanol extract",32 µg/mL
same,MIC,"strain A13, EA=95% ethanol extract",32 µg/mL
same,MIC,"strain A13, single use, EA=10% ethanol extract",32 µg/mL
same,MIC,"strain A13, single use, EA=water extract",32 µg/mL
same,MIC,"strain A14, EA=60% ethanol extract",32 µg/mL
same,MIC,"strain A14, EA=95% ethanol extract",32 µg/mL
same,MIC,"strain A14, single use, EA=10% ethanol extract",32 µg/mL
same,MIC,"strain A14, single use, EA=water extract",32 µg/mL
same,MIC,"strain A15, EA=60% ethanol extract",32 µg/mL
same,MIC,"strain A15, EA=95% ethanol extract",32 µg/mL
same,MIC,"strain A15, single use, EA=10% ethanol extract",32 µg/mL
same,MIC,"strain A15, single use, EA=water extract",32 µg/mL
same,MIC,"strain A16, EA=60% ethanol extract",32 µg/mL
same,MIC,"strain A16, EA=95% ethanol extract",32 µg/mL
same,MIC,"strain A16, single use, EA=10% ethanol extract",32 µg/mL
same,MIC,"strain A16, single use, EA=water extract",32 µg/mL
same,MIC,"strain A17, EA=60% ethanol extract",16 µg/mL
same,MIC,"strain A17, EA=95% ethanol extract",16 µg/mL
same,MIC,"strain A17, single use, EA=10% ethanol extract",16 µg/mL
same,MIC,"strain A17, single use, EA=water extract",16 µg/mL
same,MIC,"strain A18, EA=60% ethanol extract",32 µg/mL
same,MIC,"strain A18, EA=95% ethanol extract",32 µg/mL
same,MIC,"strain A18, single use, EA=10% ethanol extract",32 µg/mL
same,MIC,"strain A18, single use, EA=water extract",32 µg/mL
same,MIC,"strain A19, EA=60% ethanol extract",32 µg/mL
same,MIC,"strain A19, EA=95% ethanol extract",32 µg/mL
